Here are results for 5 compounds from US9249125B2, “Pyrazole derivatives as p38 MAP inhibitors” (RESPIVERT LIMITED, priority 2012, dated 2016).

pEC50, pIC50: −log10 of the molar value. Where only a bound is given, the exact number is not on record here.

The subject of data set [1] is Poly I:C-induced ICAM-1 expression in BEAS2B cells. Put plainly: Poly I:C-induced ICAM-1 expression in BEAS2B cells. Format: cell-based. The conditions noted are these: Homo sapiens, BEAS-2B, read-out: Poly IC induced ICAM1 in BEAS2B IC50. The method, then:
Poly I:C is used in these studies as a simple, RNA virus mimic. Poly I:C-Oligofectamine mixture (1 μg/mL Poly I:C, ±2% Oligofectamine, 25 uL) (Invivogen Ltd., San Diego, Calif., and Invitrogen, Carlsbad, Calif., respectively) is transfected into BEAS2B cells (human bronchial epithelial cells, ATCC). Cells are pre-incubated with final concentrations of test compounds for 2 hr and the level of ICAM1 expression on the cell surface is determined by cell-based ELISA. At a time point 18 hr after poly I:C transfection, cells are fixed with 4% formaldehyde in PBS (100 μL) and then endogenous peroxidase is quenched by the addition of washing buffer (100 μL, 0.05% Tween in PBS: PBS-Tween) containing 0.1% sodium azide and 1% hydrogen peroxide. Cells are washed with wash-buffer (3×200 μL). and after blocking the wells with 5% milk in PBS-Tween (100 μL) for 1 hr, the cells are incubated with anti-human ICAM-1 antibody (50 μL) (Cell Signaling Technology, Danvers, Mass.) in 1% BSA PBS overnight at 4° C.
The cells are washed with PBS-Tween (3×200 μL) and incubated with the secondary antibody (100 μL) (HRP-conjugated anti-rabbit IgG, Dako Ltd., Glostrup, Denmark). The cells are then incubated with of substrate (50 μL) for 2-20 min, followed by the addition of stop solution (50 μL, 1N H2SO4). The ICAM-1 signal is detected by reading and reading the absorbance at 450 nm against a reference wavelength of 655 nm using a spectrophotometer. The cells are then washed with PBS-Tween (3×200 μL) and total cell numbers in each well are determined by reading absorbance at 595 nm after Crystal Violet staining (50 μL of a 2% solution in PBS) and elution by 1% SDS solution (100 μL) in distilled water. The measured OD 450-655 readings are corrected for cell number by dividing with the OD595 reading in each well.

The subject of data set [2] is LPS-induced IL-8 release in d-U937 cells. Put plainly: LPS-induced IL-8 release in d-U937 cells. Format: cell-based. The note with it: Homo sapiens, dU937, read-out: LPS Induced Release of Cytokine in d-937 Cells IL-8 IC50. The method, then:
(§1) U937 cells, a human monocytic cell line, are differentiated into macrophage-type cells by incubation with PMA (100 ng/mL) for 48 to 72 hr. Cells are pre-incubated with final concentrations of test compound for 2 hr and are then stimulated with LPS (0.1 μg/mL) (from E. coli: O111:B4, Sigma) for 4 hr. The supernatant is collected for determination of TNFα and IL-8 concentrations by sandwich ELISA (Duo-set, R&D systems). […] The relative 50% effective concentration (REC50) is determined from the resultant concentration-response curve. The inhibition of IL-8 production is calculated at each concentration of test compound by comparison with vehicle control. […] (b) LPS-Induced TNFα/IL-8 Release in PBMC Cells

Another data set concerns the target GSK3α (Homo sapiens (Human), UniProt P49840). Put plainly: GSK 3α enzyme inhibition (FRET, Z-LYTE). Format: biochemical. On the procedure:
(§2) The enzyme inhibitory activities of compounds disclosed herein are determined by FRET using synthetic peptides labelled with both donor and acceptor fluorophores (Z-LYTE, Invitrogen Ltd., Paisley, UK).
The inhibitory activities of compounds of the invention against the GSK 3α enzyme isoform (Invitrogen), are evaluated by determining the level of activation/phosphorylation of the target peptide. The GSK3-α protein (500 ng/mL, 2.5 μL) is mixed with the test compound (2.5 μL at either 4 μg/mL, 0.4 μg/mL, 0.04 μg/mL, or 0.004 μg/mL) for 2 hr at RT. The FRET peptide (8 μM, 2.5 μL), which is a phosphorylation target for GSK3α, and ATP (40 μM, 2.5 μL) are then added to the enzyme/compound mixture and the resulting mixture incubated for 1 hr. Development reagent (protease, 5 μL) is added for 1 hr prior to detection in a fluorescence microplate reader (Varioskan® Flash, ThermoFisher Scientific).
(§3) In all cases, the site-specific protease cleaves non-phosphorylated peptide only and eliminates the FRET signal. Phosphorylation levels of each reaction are calculated using the ratio of coumarin emission (donor) over fluorescein emission (acceptor), for which low ratios indicate high phosphorylation and high ratios indicate low phosphorylation levels.

The subject of data set [3] is LPS-induced TNFα release in d-U937 cells. The experiment in a line: LPS-induced TNFα release in d-U937 cells. The conditions noted are these: Homo sapiens, dU937, relative to 10 μg/mL BIRB796, read-out: LPS Induced Release of Cytokine in d-937 Cells TNFα REC50. Format: cell-based. The method, then:
as §1

Another data set has as its target Syk (Homo sapiens (Human), UniProt P43405). Put plainly: Syk enzyme inhibition (FRET, Z-LYTE). Format: biochemical. The method, then:
as §2
(§4) The relevant enzyme (3000 ng/mL or 2000 ng/mL respectively, 2.5 μL) is incubated with the test compound (either 4 μg/mL, 0.4 μg/mL, 0.04 μg/mL, or 0.004 μg/mL, 2.5 μL each) for 2 hr at RT. The FRET peptides (8 μM, 2.5 μL), and appropriate ATP solutions (2.5 μL, 800 μM for c-Src, and 60 μM ATP for Syk) are then added to the enzymes/compound mixtures and incubated for 1 hr. Development reagent (protease, 5 μL) is added for 1 hr prior to detection in a fluorescence microplate reader (Varioskan® Flash, ThermoFisher Scientific).
as §3

The next data set relates to d-U937 cells. The experiment in a line: Cell viability: MTT assay. Format: cell-based, human. The conditions noted are these: 1 μg/mL. The method, then:
Differentiated U937 cells are pre-incubated with each test compound (final concentration 1 μg/mL or 10 μg/mL in 200 μL media indicated below) under two protocols: the first for 4 hr in 5% FCS RPMI1640 media and the second in 10% FCS RPMI1640 media for 24 h. The supernatant is replaced with new media (200 μL) and MTT stock solution (10 μL, 5 mg/mL) is added to each well. After incubation for 1 hr the media are removed, DMSO (200 μL) is added to each well and the plates are shaken lightly for 1 hr prior to reading the absorbance at 550 nm. The percentage loss of cell viability is calculated for each well relative to vehicle (0.5% DMSO) treatment. Consequently an apparent increase in cell viability for drug treatment relative to vehicle is tabulated as a negative percentage.

In a further data set the target is p38 MAPKα (Homo sapiens (Human), UniProt Q16539). Put plainly: p38 MAPKα enzyme inhibition (FRET, Z-LYTE). In kind it is biochemical. The method, then:
as §2
The inhibitory activities of test compounds against the p38 MAPKα isoform (MAPK14: Invitrogen), are evaluated indirectly by determining the level of activation/phosphorylation of the down-stream molecule, MAPKAP-K2. The p38 MAPKα protein (80 ng/mL, 2.5 μL) is mixed with the test compound (2.5 μL of either 4 μg/mL, 0.4 μg/mL, 0.04 μg/mL or 0.004 μg/mL) for 2 hr at RT. […] The mixture is incubated for 1 hr at RT. Development reagent (protease, 5 μL) is added for 1 hr prior to detection in a fluorescence microplate reader (Varioskan® Flash, ThermoFisher Scientific).
as §3

For the next data set, the target named is cSrc (Homo sapiens (Human), UniProt P12931). Put plainly: c-Src enzyme inhibition (FRET, Z-LYTE). In kind it is biochemical. On the procedure:
as §2, §4, §3

Chain of p38 MAPKα (Q16539 whole entry): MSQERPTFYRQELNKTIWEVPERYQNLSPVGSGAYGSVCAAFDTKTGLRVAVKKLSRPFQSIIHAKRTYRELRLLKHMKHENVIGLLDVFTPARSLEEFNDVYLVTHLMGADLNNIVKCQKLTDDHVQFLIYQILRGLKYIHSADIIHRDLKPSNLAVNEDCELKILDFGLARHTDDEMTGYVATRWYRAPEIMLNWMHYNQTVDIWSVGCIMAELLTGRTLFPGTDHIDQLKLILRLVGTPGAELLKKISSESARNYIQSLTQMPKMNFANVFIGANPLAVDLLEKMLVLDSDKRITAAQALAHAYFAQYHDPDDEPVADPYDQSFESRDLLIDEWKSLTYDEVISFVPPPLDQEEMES
Chain of GSK3α (P49840 whole entry): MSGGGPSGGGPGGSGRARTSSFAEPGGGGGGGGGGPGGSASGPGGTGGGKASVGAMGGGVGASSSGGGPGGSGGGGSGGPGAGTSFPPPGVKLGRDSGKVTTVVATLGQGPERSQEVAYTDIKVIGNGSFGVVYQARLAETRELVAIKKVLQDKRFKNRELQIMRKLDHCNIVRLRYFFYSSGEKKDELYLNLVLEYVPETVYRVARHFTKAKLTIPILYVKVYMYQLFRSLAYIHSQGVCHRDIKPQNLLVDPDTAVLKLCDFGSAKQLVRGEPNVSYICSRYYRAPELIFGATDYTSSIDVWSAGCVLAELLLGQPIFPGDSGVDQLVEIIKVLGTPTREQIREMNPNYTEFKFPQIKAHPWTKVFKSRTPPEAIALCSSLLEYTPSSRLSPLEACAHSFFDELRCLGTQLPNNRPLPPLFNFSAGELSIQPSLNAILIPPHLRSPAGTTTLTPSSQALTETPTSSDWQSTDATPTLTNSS
Chain of cSrc (P12931 whole entry, looked up): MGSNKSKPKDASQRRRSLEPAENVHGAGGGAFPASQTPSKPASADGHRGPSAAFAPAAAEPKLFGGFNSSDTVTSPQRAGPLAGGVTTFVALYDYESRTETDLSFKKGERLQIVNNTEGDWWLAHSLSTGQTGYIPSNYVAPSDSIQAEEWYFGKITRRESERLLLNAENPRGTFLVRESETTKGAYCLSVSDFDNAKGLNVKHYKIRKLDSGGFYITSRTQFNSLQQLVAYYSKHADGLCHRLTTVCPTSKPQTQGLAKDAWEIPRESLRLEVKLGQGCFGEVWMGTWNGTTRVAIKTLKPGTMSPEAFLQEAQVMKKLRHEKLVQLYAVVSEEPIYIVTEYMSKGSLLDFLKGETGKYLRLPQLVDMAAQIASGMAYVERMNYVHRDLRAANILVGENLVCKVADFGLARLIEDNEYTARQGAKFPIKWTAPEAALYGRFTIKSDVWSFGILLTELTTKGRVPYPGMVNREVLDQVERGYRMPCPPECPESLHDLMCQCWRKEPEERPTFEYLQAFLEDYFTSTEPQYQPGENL

`Cc1ccc(-n2nc(C(C)(C)C)cc2NC(=O)Nc2ccc(Oc3ccnc(Nc4cccc5[nH]ncc45)n3)c3ccccc23)cc1` [Example 21]: the negative logarithm of the IC50 (pIC50) in data set [1] is 8.52; in data set [2] it was 8.30; against GSK3α, < 4.80; against Syk, 6.74. The pEC50 in data set [3] is 8.77. In addition, in the data set with d-U937 cells, the “MTT Assay Cell viability at time point in d-U937 cells 4 h” value was “−ve (−ve and +ve indicate that the value is below and above respectively, the no significant effect threshold, defined as 30% inhibition at 1 μg/mL at the time point indicated.)”. In addition, the “MTT Assay Cell viability at time point in d-U937 cells 24 h” value with d-U937 cells was “−ve (−ve and +ve indicate that the value is below and above respectively, the no significant effect threshold, defined as 30% inhibition at 1 μg/mL at the time point indicated.)”.
As to `Cc1ccc(-n2nc(C(C)(C)C)cc2NC(=O)Nc2ccc(Oc3ccnc(Nc4ccc5[nH]nc(C(=O)NCCN6CCOCC6)c5c4)n3)c3ccccc23)cc1` [Example 3, 5-((4-((4-(3-(3-(tert-Butyl)-1-(p-tolyl)-1H-pyrazol-5-yl)ureido)naphthalen-1-yl)oxy)pyrimidin-2-yl)amino)-N-(2-morpholinoethyl)-1H-indazole-3-carboxamide], the pIC50 in data set [1] is 8.17; in data set [2], 7.46; against p38 MAPKα, 7.72; against GSK3α, 5.63; on Syk, 7.02; on cSrc, 8.22. Moreover, in data set [3], the pEC50 is 8.28. For the same compound, the “MTT Assay Cell viability at time point in d-U937 cells 4 h” value in the data set on d-U937 cells was “−ve (−ve and +ve indicate that the value is below and above respectively, the no significant effect threshold, defined as 30% inhibition at 1 μg/mL at the time point indicated.)”. For the same compound, the “MTT Assay Cell viability at time point in d-U937 cells 24 h” value with d-U937 cells was “−ve (−ve and +ve indicate that the value is below and above respectively, the no significant effect threshold, defined as 30% inhibition at 1 μg/mL at the time point indicated.)”.
In the case of `CC(C)(C)c1cc(NC(=O)Nc2ccc(Oc3ccnc(Nc4ccc5[nH]ccc5c4)n3)c3ccccc23)n(-c2ccc(O)cc2)n1` [Example 37, 1-(4-((2-((1H-indol-5-yl)amino)pyrimidin-4-yl)oxy)naphthalen-1-yl)-3-(3-(tert-butyl)-1-(4-hydroxyphenyl)-1H-pyrazol-5-yl)urea], the pIC50 in data set [1] is 8.43; in data set [2] it was 8.23; against p38 MAPKα it was 6.48; against GSK3α it was < 5.80; at Syk, 6.85; against cSrc, 7.80. Moreover, the pEC50 in data set [3] is 8.60. Moreover, the “MTT Assay Cell viability at time point in d-U937 cells 4 h” value with d-U937 cells is “−ve (−ve and +ve indicate that the value is below and above respectively, the no significant effect threshold, defined as 30% inhibition at 1 μg/mL at the time point indicated.)”. The “MTT Assay Cell viability at time point in d-U937 cells 24 h” value with d-U937 cells was “−ve (−ve and +ve indicate that the value is below and above respectively, the no significant effect threshold, defined as 30% inhibition at 1 μg/mL at the time point indicated.)”.
`Cc1ccc(-n2nc(C(C)(C)C)cc2NC(=O)Nc2ccc(Oc3ccnc(Nc4cnc5[nH]ccc5c4)n3)c3ccccc23)cc1` [Example 32, 1-(4-((2-((1H-pyrrolo[2,3-b]pyridin-5-yl)amino)pyrimidin-4-yl)oxy)naphthalen-1-yl)-3-(3-(tert-butyl)-1-(p-tolyl)-1H-pyrazol-5-yl)urea]: the negative-log IC50 (pIC50) is 9.22 in data set [2], 7.10 on p38 MAPKα and < 5.80 on GSK3α. Moreover, the pEC50 in data set [3] was 8.77. The “MTT Assay Cell viability at time point in d-U937 cells 4 h” value with d-U937 cells was “−ve (−ve and +ve indicate that the value is below and above respectively, the no significant effect threshold, defined as 30% inhibition at 1 μg/mL at the time point indicated.)”. The “MTT Assay Cell viability at time point in d-U937 cells 24 h” value in the data set with d-U937 cells is “−ve (−ve and +ve indicate that the value is below and above respectively, the no significant effect threshold, defined as 30% inhibition at 1 μg/mL at the time point indicated.)”.
For `Cc1cc(Nc2nccc(Oc3ccc(NC(=O)Nc4cc(C(C)(C)C)nn4-c4ccc(OCCN5CCOCC5)cc4)c4ccccc34)n2)cc2cn[nH]c12` [Example 73, 1-(3-(tert-butyl)-1-(4-(2-morpholinoethoxy)phenyl)-1H-pyrazol-5-yl)-3-(4-((2-((7-methyl-1H-indazol-5-yl)amino)pyrimidin-4-yl)oxy)naphthalen-1-yl)urea], the negative-log IC50 (pIC50) in data set [1] was 8.66; in data set [2], 8.59; on p38 MAPKα, 7.16; at GSK3α, 5.74; at Syk, 8.40; on cSrc, 8.30. The “MTT Assay Cell viability at time point in d-U937 cells 4 h” value in the data set with d-U937 cells was “−ve (−ve and +ve indicate that the value is below and above respectively, the no significant effect threshold, defined as 30% inhibition at 1 μg/mL at the time point indicated.)”. The “MTT Assay Cell viability at time point in d-U937 cells 24 h” value in the data set with d-U937 cells was “−ve (−ve and +ve indicate that the value is below and above respectively, the no significant effect threshold, defined as 30% inhibition at 1 μg/mL at the time point indicated.)”.

The pIC50 is the IC50 on a negative log10 scale, so that one unit is a factor of ten.
